Measured values published in DBAASP.
Converted amounts (≈) assume the structure as drawn. One block for each molecule: values may come before it.

Key:
Assay in all cases: ≥ marks a high value that may be exact or a test limit, other limits are often not marked, values filed in µg/mL are converted to µM
[1] = tested on: Pseudomonas aeruginosa CICC 21630
[2] = tested on: Pseudomonas aeruginosa CICC 21625
[3] = tested on: Pseudomonas aeruginosa 25349
[4] = tested on: Staphylococcus aureus ATCC 29213
[5] = tested on: Pseudomonas aeruginosa CICC 11411
[6] = tested on: Escherichia coli ATCC 25922
[7] = tested on: Pseudomonas aeruginosa 21328
[8] = tested on: Pseudomonas aeruginosa CICC 10419
[9] = tested on: Pseudomonas aeruginosa CICC 11421
[10] = tested on: Pseudomonas aeruginosa CICC 11431
[11] = tested on: Pseudomonas aeruginosa ATCC 27853
[12] = tested on: Staphylococcus epidermidis
[13] = tested on: Vibrio alginolyticus
[14] = tested on: Staphylococcus aureus
[15] = tested on: Escherichia coli
[16] = tested on: Vibrio parahaemolyticus
[17] = tested on: Pseudomonas aeruginosa
[18] = tested on: Bacillus cereus
[19] = tested on: Candida albicans
[20] = tested on: Aeromonas hydrophila
[21] = tested on: Corynebacterium glutamicum
[22] = tested on: Cryptococcus neoformans
[23] = tested on: Pseudomonas aeruginosa PAO1
[24] = tested on: Bibersteinia trehalosi
[25] = tested on: Aspergillus fumigatus
[26] = tested on: Mannheimia haemolytica Serovar 2
[27] = tested on: Mannheimia haemolytica Serovar 6
[28] = tested on: Salmonella enterica subsp. arizonae
[29] = tested on: Corynebacterium pseudotuberculosis ATCC 19410
[30] = tested on: Mannheimia haemolytica Serovar 1
[31] = tested on: Klebsiella pneumoniae
[32] = tested on: Pasteurella multocida
[33] = tested on: Staphylococcus aureus ATCC 25923
[34] = tested on: Escherichia coli C25
[35] = tested on: Salmonella typhimurium KCTC 1926
[36] = tested on: Staphylococcus aureus 3518
[37] = tested on: Pseudomonas aeruginosa 3241
[38] = tested on: Pseudomonas aeruginosa CCARM 2073
[39] = tested on: Staphylococcus aureus CCARM 3709
[40] = tested on: Pseudomonas aeruginosa CCARM 2075
[41] = tested on: Staphylococcus aureus 3399
[42] = tested on: Staphylococcus aureus CCARM 3125
[43] = tested on: Listeria monocytogenes KCTC 19111
[44] = tested on: Pseudomonas aeruginosa 4007
[45] = tested on: Staphylococcus epidermidis KCTC 1917
[46] = tested on: Pseudomonas aeruginosa ATCC 15692
[47] = tested on: Escherichia coli KpC+001812446
[48] = tested on: Klebsiella pneumoniae ATCC 13883
[49] = tested on: Klebsiella pneumoniae KpC+001825971

Structure (SMILES): C[C@H](N)C(=O)N[C@@H](CCCN=C(N)N)C(=O)N[C@@H](CCCN=C(N)N)C(=O)N[C@@H](C)C(=O)N[C@@H](CCCN=C(N)N)C(=O)N[C@@H](CCCN=C(N)N)C(=O)N[C@@H](CCCN=C(N)N)C(=O)N[C@@H](Cc1c[nH]c2ccccc12)C(=O)N[C@@H](CCCN=C(N)N)C(=O)N[C@@H](CCCN=C(N)N)C(=O)N[C@@H](CCCN=C(N)N)C(=O)N[C@@H](C)C(=O)N[C@@H](CCCN=C(N)N)C(=O)N[C@@H](CCCN=C(N)N)C(=O)N[C@@H](C)C(N)=O [ARRARRRWRRRARRA]
- MIC [1]: ≥ 125 µM
- MIC [2]: ≥ 125 µM
- MIC [3]: 15.6 µM (≈ 32 µg/mL)
- MIC [4]: 31.2 µM (≈ 64 µg/mL)
- MIC [5]: ≥ 125 µM
- MIC [6]: 31.2 µM (≈ 64 µg/mL)
- MIC [7]: ≥ 125 µM
- MIC [8]: ≥ 125 µM
- MIC [9]: ≥ 125 µM
- MIC [10]: ≥ 125 µM
- MIC [11]: 62.4 µM (≈ 128 µg/mL)

Structure (SMILES): CC[C@H](C)[C@H](NC(=O)[C@H](C)NC(=O)CNC(=O)[C@@H](NC(=O)[C@@H](NC(=O)[C@H](Cc1cnc[nH]1)NC(=O)[C@H](CCCN=C(N)N)NC(=O)[C@H](Cc1ccccc1)NC(=O)[C@@H](N)Cc1ccccc1)[C@@H](C)CC)C(C)C)C(=O)N[C@@H](CO)C(=O)N[C@@H](CCCN=C(N)N)C(=O)N[C@H](C(=O)N[C@@H](Cc1ccccc1)C(=O)NCC(=O)N[C@@H](CCC(N)=O)C(=O)N[C@@H](CCCCN)C(=O)N[C@@H](CCC(N)=O)C(=O)N[C@@H](CCCN=C(N)N)C(=O)N[C@@H](CC(=O)O)C(=O)N[C@@H](CCSC)C(=O)N[C@@H](C)C(=O)N[C@@H](CC(=O)O)C(=O)O)[C@@H](C)CC [FFRHIVGAISRIFGQKQRDMAD]
- MIC [12]: 17.7 µM (≈ 45.8 µg/mL)
- MIC [13]: ≥ 50 µM
- MIC [14]: 4.42 µM (≈ 11.5 µg/mL)
- MIC [15]: 17.7 µM (≈ 45.8 µg/mL)
- MIC [16]: ≥ 50 µM
- MIC [17]: 35.4 µM (≈ 91.7 µg/mL)
- MIC [18]: 17.7 µM (≈ 45.8 µg/mL)
- MIC [19]: 17.7 µM (≈ 45.8 µg/mL)
- MIC [20]: ≥ 50 µM
- MIC [21]: 2.21 µM (≈ 5.73 µg/mL)
- MIC [22]: 2.21 µM (≈ 5.73 µg/mL)

Structure (SMILES): CC[C@H](C)[C@H](N)C(=O)N[C@@H](CCCN=C(N)N)C(=O)N[C@@H](CCCN=C(N)N)C(=O)N[C@H](C(=O)N[C@H](C(=O)N[C@@H](CCCN=C(N)N)C(=O)N[C@@H](CCCCN)C(=O)N[C@H](C(=O)N[C@H](C(=O)N[C@@H](Cc1cnc[nH]1)C(=O)N[C@H](C(=O)N[C@H](C(=O)N[C@@H](CCCCN)C(=O)N[C@@H](CCCCN)C(=O)O)[C@@H](C)CC)[C@@H](C)CC)[C@@H](C)CC)[C@@H](C)CC)[C@@H](C)CC)[C@@H](C)CC [IRRIIRKIIHIIKK]
- MIC [23]: 2.78 µM (≈ 5 µg/mL)
- MIC [24]: 11.1 µM (≈ 20 µg/mL)
- MIC [14]: > 11.1 µM
- MIC [25]: 22.2 µM (≈ 40 µg/mL)
- MIC [26]: 2.33 µM (≈ 4.2 µg/mL)
- MIC [27]: 3.72 µM (≈ 6.7 µg/mL)
- MIC [28]: 11.1 µM (≈ 20 µg/mL)
- MIC [29]: 11.1 µM (≈ 20 µg/mL)
- MIC [30]: 5.55 µM (≈ 10 µg/mL)
- MIC [31]: > 11.1 µM
- MIC [32]: 8.33 µM (≈ 15 µg/mL)

Next, values leading:

- MIC [33]: 33 µM (≈ 56.6 µg/mL)
- MIC [34]: 8.2 µM (≈ 14.1 µg/mL)
Structure (SMILES): CC[C@H](C)[C@H](NC(=O)CNC(=O)[C@H](CCCCN)NC(=O)[C@H](Cc1ccc(O)cc1)NC(=O)[C@@H](NC(=O)[C@H](CCCCN)NC(=O)[C@H](Cc1ccccc1)NC(=O)[C@H](Cc1c[nH]c2ccccc12)NC(=O)[C@@H](N)CCCCN)C(C)C)C(=O)N[C@@H](Cc1ccc(O)cc1)C(=O)N[C@@H](CCCCN)C(=O)N[C@@H](CCCCN)C(=O)N[C@@H](CCCCN)C(N)=O [KWFKVYKGIYKKK]

- MIC [35]: 2 µM (≈ 3.67 µg/mL)
- MIC [36]: 2 µM (≈ 3.67 µg/mL)
- MIC [37]: 2 µM (≈ 3.67 µg/mL)
- MIC [38]: 2 µM (≈ 3.67 µg/mL)
- MIC [6]: 2 µM (≈ 3.67 µg/mL)
- MIC [39]: 2 µM (≈ 3.67 µg/mL)
- MIC [40]: 2 µM (≈ 3.67 µg/mL)
- MIC [33]: 4 µM (≈ 7.34 µg/mL)
- MIC [41]: 4 µM (≈ 7.34 µg/mL)
- MIC [42]: 4 µM (≈ 7.34 µg/mL)
- MIC [43]: 2 µM (≈ 3.67 µg/mL)
- MIC [44]: 4 µM (≈ 7.34 µg/mL)
- MIC [45]: 2 µM (≈ 3.67 µg/mL)
- MIC [46]: 2 µM (≈ 3.67 µg/mL)
Structure (SMILES): NCCCC[C@H](NC(=O)[C@H](Cc1ccc(O)cc1)NC(=O)[C@H](Cc1c[nH]c2ccccc12)NC(=O)[C@H](CCCCN)NC(=O)[C@H](CCCCN)NC(=O)[C@H](Cc1ccc(O)cc1)NC(=O)[C@H](Cc1c[nH]c2ccccc12)NC(=O)[C@H](CCCCN)NC(=O)[C@H](CCCCN)NC(=O)[C@H](Cc1ccc(O)cc1)NC(=O)[C@H](Cc1c[nH]c2ccccc12)NC(=O)[C@@H](N)CCCCN)C(N)=O [KWYKKWYKKWYK]

- MIC [6]: 4 µM (≈ 8.48 µg/mL)
- MIC [47]: 4 µM (≈ 8.48 µg/mL)
- MIC [48]: 30 µM (≈ 63.6 µg/mL)
- MIC [49]: 8 µM (≈ 17 µg/mL)
Structure (SMILES): CC[C@H](C)[C@H](NC(=O)[C@H](CCCCN)NC(=O)[C@H](CCCCN)NC(=O)[C@H](Cc1ccccc1)NC(=O)[C@H](CC(C)C)NC(=O)[C@H](CCCCN)NC(=O)[C@H](Cc1c[nH]c2ccccc12)NC(=O)[C@H](CCCCN)NC(=O)[C@H](Cc1cnc[nH]1)NC(=O)[C@@H](NC(=O)[C@@H](N)C(C)C)[C@@H](C)CC)C(=O)NCC(=O)N[C@@H](C)C(=O)N[C@H](C(=O)N[C@@H](CC(C)C)C(=O)N[C@@H](CCCCN)C(=O)N[C@H](C(=O)N[C@@H](CC(C)C)C(=O)O)C(C)C)C(C)C [VIHKWKLFKKIGAVLKVL]
